Reference: patent publication US9737075B2, “Synergistic benzoxaborole-containing anti-fungicidal composition” (The Penn State Research Foundation, priority 2015, dated 2017)
Values after ≈ are worked out from the molar mass of the structure shown. Read-outs that look alike come from different tables or passages of the source.

Legend:
Format in all cases: cell-based
[1] = system: Fusarium graminearum; assay: microbe, parasite or virus in culture; details: Fusarium graminearum, 72 h, read-out: Independent MIC
[2] = system: Aspergillus niger; assay: Broth microdilution MIC of individual antifungals; details: read-out: Independent MIC
[3] = system: Sclerotinia homoeocarpa; assay: Broth microdilution MIC of individual antifungals; details: Sclerotinia homoeocarpa, individual antifungal, 25% PDB, about 25° C., 72 hours, range over N independent triplicate studies; for MIC: Clarireedia homoeocarpa, read-out: Independent MIC
[4] = system: Botrytis cinerea 10-1728; assay: Broth microdilution MIC of individual antifungals; details: Botrytis cinerea 10-1728, individual antifungal, 25% PDB, about 25° C., 72 hours, range over N independent triplicate studies; for MIC: 101728, read-out: Independent MIC
[5] = system: Mucor sp.; assay: Broth microdilution MIC of individual antifungals; details: individual antifungal, 25% PDB, about 25° C., 72 hours, range over N independent triplicate studies
[6] = system: Magnaporthe grisea; assay: microbe, parasite or virus in culture; details: Pyricularia oryzae, 72 h, read-out: Independent MIC
[7] = system: Phytophthora pini; assay: Broth microdilution MIC of individual antifungals; details: individual antifungal, 25% PDB, about 25° C., 72 hours, range over N independent triplicate studies
[8] = system: Mycosphaerella zeae-maydis; assay: Broth microdilution MIC of individual antifungals; details: Didymella maydis, individual antifungal, 25% PDB, about 25° C., 72 hours, range over N independent triplicate studies
[9] = system: Aspergillus flavus; assay: Broth microdilution MIC of individual antifungals; details: individual antifungal, 25% PDB, about 25° C., 72 hours, range over N independent triplicate studies, read-out: Independent MIC
[10] = system: Aspergillus fumigatus; assay: Broth microdilution MIC of individual antifungals; details: individual antifungal, 25% PDB, about 25° C., 72 hours, range over N independent triplicate studies, read-out: Independent MIC
[11] = system: Fusarium verticillioides; assay: Broth microdilution MIC of individual antifungals; details: individual antifungal, 25% PDB, about 25° C., 72 hours, range over N independent triplicate studies, read-out: Independent MIC
[12] = system: Alternaria solani; assay: Broth microdilution MIC of individual antifungals; details: individual antifungal, 25% PDB, about 25° C., 72 hours, range over N independent triplicate studies; for MIC: read-out: Independent MIC
[13] = system: Candida albicans; assay: Broth microdilution MIC of individual antifungals; details: individual antifungal, 25% PDB, about 25° C., 72 hours, range over N independent triplicate studies, read-out: Independent MIC
[14] = system: Penicillium chrysogenum; assay: Broth microdilution MIC of individual antifungals; details: read-out: Independent MIC
[15] = system: Colletotrichum orbiculare; assay: Broth microdilution MIC of individual antifungals; details: read-out: Independent MIC
[16] = system: Rhizopus sp.; assay: Broth microdilution MIC of individual antifungals; details: Rhizopus, 72 h, read-out: Independent MIC
[17] = system: Rhizoctonia solani; assay: Broth microdilution MIC of individual antifungals; details: individual antifungal, 25% PDB, about 25° C., 72 hours, range over N independent triplicate studies, read-out: Independent MIC
[18] = system: Aureobasidium pullulans; assay: Broth microdilution MIC of individual antifungals; details: 72 h, read-out: Independent MIC
[19] = system: Botrytis cinerea B17; assay: Broth microdilution MIC of individual antifungals; details: Botrytis cinerea, B17, 72 h, read-out: Independent MIC
[20] = system: Stachybotrys chartarum; assay: Broth microdilution MIC of individual antifungals; details: 72 h, read-out: Independent MIC
[21] = individual antifungal, 25% PDB, about 25° C., 72 hours, range over N independent triplicate studies
[22] = Rhizopus sp., individual antifungal, 25% PDB, about 25° C., 72 hours, range over N independent triplicate studies

OB1OCc2ccccc21 [BO, 2-(hydroxymethyl)benzene boronic acid hemiester]
MIC [1]: 2 to 4 µg/mL (≈ 14.9 to 29.9 µM)

O=C(Nc1ccccc1-c1ccc(Cl)cc1)c1cccnc1Cl [Boscalid, boscalid]
MIC [2, 21]: 0.39 to 0.5 µg/mL
MIC [3]: 0.8 µg/mL
MIC [4]: 3.12 to 6.25 µg/mL

CCCCc1c(C)nc(NCC)nc1OS(=O)(=O)N(C)C [Bupirimate]
MIC [3]: 50 to 100 µg/mL
MIC [4]: 100 µg/mL
MIC [5]: 100 µg/mL
MIC [6]: 50 µg/mL (≈ 158 µM)
MIC [7]: 50 µg/mL

COC(=O)Nc1nc2ccccc2[nH]1 [Carbendazim, carbendazim]
MIC [8]: 1.56 to 2 µg/mL
MIC [9]: 0.78 to 3.12 µg/mL
MIC [10]: 1.56 to 3.12 µg/mL
MIC ([2]; 72 h): 1 to 1.56 µg/mL
MIC [3]: 0.05 to 0.1 µg/mL
MIC [1]: 1.56 µg/mL (≈ 8.16 µM)
MIC [11]: 3.12 to 4 µg/mL
MIC [6]: 0.39 to 0.78 µg/mL (≈ 2.04 to 4.08 µM)

Cc1cc(C2CC2)nc(Nc2ccccc2)n1 [Cyprodinil, cyprodinil]
MIC [8]: 1.56 µg/mL
MIC [12]: 100 µg/mL
MIC [9]: 0.75 to 1.56 µg/mL
MIC [2, 21]: 3.12 µg/mL
MIC [3]: 0.39 µg/mL
MIC [4]: 50 to 100 µg/mL
MIC [13]: 50 µg/mL
MIC [1]: 200 µg/mL (≈ 888 µM)
MIC [11]: 100 to 200 µg/mL
MIC [5]: 50 µg/mL
MIC [14, 21]: 0.025 to 0.048 µg/mL
MIC [15, 21]: 100 to 200 µg/mL

CCOc1ccc(NC(=O)OC(C)C)cc1OCC [Diethofencarb, diethofencarb]
MIC [3]: 100 to 200 µg/mL
MIC [4]: 1.5 to 1.56 µg/mL
MIC [5]: 100 to 200 µg/mL

COc1ccc(C(=CC(=O)N2CCOCC2)c2ccc(Cl)cc2)cc1OC [Dimethomorph, dimethomorph]
MIC [4]: 100 to 200 µg/mL
MIC [5]: 200 to 400 µg/mL

CCCCc1c(C)nc(NCC)[nH]c1=O [Ethirimol, ethirimol]
MIC [8]: 400 µg/mL
MIC [3]: 200 µg/mL
MIC [4]: 200 to 400 µg/mL
MIC [7]: 200 µg/mL

CSC1=N[C@@](C)(c2ccccc2)C(=O)N1Nc1ccccc1 [Fenamidone, fenamidone]
MIC [8]: 50 to 200 µg/mL
MIC [12]: 100 to 200 µg/mL
MIC [3]: 100 to 200 µg/mL
MIC [4]: 100 µg/mL
MIC [5]: 50 to 200 µg/mL

CC(Oc1ccc(Cl)cc1Cl)C(=O)NC(C)(C#N)C(C)C (stereo not shown) [Fenoxanil, fenoxanil]
Independent MIC [12]: 200 µg/mL
Independent MIC [3]: 200 µg/mL
Independent MIC [4]: (100-200) μg/mL
Independent MIC [5]: (50-100) μg/mL

O=[N+]([O-])c1cc(C(F)(F)F)c(Cl)c([N+](=O)[O-])c1Nc1ncc(C(F)(F)F)cc1Cl [Fluazinam, fluazinam]
MIC [8]: 1 to 1.56 µg/mL
MIC [12]: 0.5 to 0.78 µg/mL
MIC [2, 21]: 3.12 µg/mL
MIC [3]: 3.12 to 6.25 µg/mL
MIC [4]: 1 to 1.56 µg/mL
MIC [11]: 12.5 µg/mL
MIC [16, 22]: 0.2 to 0.78 µg/mL
MIC [5]: 0.78 to 1 µg/mL
MIC [7]: 3.12 µg/mL
MIC [17]: 6.25 to 25 µg/mL

N#Cc1c[nH]cc1-c1cccc2c1OC(F)(F)O2 [Fludioxonil, fludioxonil]
MIC [8]: 2 µg/mL
MIC [18]: 3 to 3.12 µg/mL
MIC [10]: 0.25 to 1 µg/mL
MIC [3]: 0.125 to 0.25 µg/mL
MIC [4]: 0.5 to 0.78 µg/mL
MIC [19]: 0.5 µg/mL
MIC [1]: 50 µg/mL (≈ 201 µM)
MIC [20]: 2 µg/mL
MIC [16]: 50 to 80 µg/mL
MIC [6]: 0.16 to 0.31 µg/mL (≈ 0.645 to 1.25 µM)
MIC [7]: 200 µg/mL
MIC ([14]; 72 h): 0.012 to 0.048 µg/mL
MIC ([15]; 72 h): 0.195 to 0.39 µg/mL

O=C(NCCc1ncc(C(F)(F)F)cc1Cl)c1ccccc1C(F)(F)F [Fluopyram, fluopyram]
MIC [9]: 200 µg/mL
MIC [10]: 3.12 to 6.25 µg/mL
MIC [2, 21]: 0.78 to 1.56 µg/mL
MIC [3]: 0.78 to 3.12 µg/mL
MIC [4]: 1.56 to 4 µg/mL
MIC [16, 22]: 200 µg/mL
MIC [5]: 200 µg/mL
MIC [14, 21]: 0.1 to 0.4 µg/mL

CC(C)Oc1cccc(NC(=O)c2ccccc2C(F)(F)F)c1 [Flutolanil, flutolanil]
MIC [4]: 400 µg/mL
